Assay results: US7098304B1, “Assay for the diagnosis of schizophrenia based on a new peptide” (Yeda Research and Development Co. Ltd., priority 1998, dated 2006)

How the values were obtained:
[1] = system: SDAs as compared to NSDAs; assay: Binding activity of peptides line-blotted onto PVDF to SDAs as compared to NSDAs; set-up: species or system human; key to Activity: showed a substantially higher binding activity to SDAs as compared to their binding to NSDAs (indicated as YES in the table); No: showed no significant differences in their binding to samples from schizophrenic and non-schizophrenic individuals (designed as no in the table); conditions: for Activity: binding to SDAs versus NSDAs
Procedure: (§1) 1. Platelets and Anti-Platelet Autoantibodies Venous blood (20 ml) was drawn with heparin as anticoagulant from patients and control subjects. Platelet rich plasma (PRP) was obtained by centrifugation (100 g for 20 mins) at room temperature. Plasma free platelets were obtained by washing them three times with phosphate buffered saline (PBS) supplemented with 10 ml mM EDTA as anticoagulant (4000 g; 15 mins; 4° C.). For the isolation of anti-platelet antibodies, the platelets were incubated with 0.1 M glycine/10 mM EDTA, pH 2.8, for 10 min. at room temperature and then centrifuged (4000 g; 15 min; 4° C.). The supernatant containing the anti-platelet antibodies, was neutralized with saturated Na2PO4 solution and stored at −20 until use. 2. Preparative Isoelectric Focusing
(§2) The fractions were analyzed for immuno-reactivity by polyacrylamide (10%) gel electrophoresis, blotting the proteins onto PVDF membranes and probing the membrane with 1 ml auto-antibodies in 50 ml incubation buffer. Anti-human Fc conjugated to horseradish peroxidase (goat) from SIGMA (1:500 dilution) and Fast-DAB™ (SIGMA) or 4-Chloro-naphthol (SIGMA) were used as color reagent in order to detect bound human anti-platelet antibodies.
(§3) Various peptides were synthesized on Abimed 522 at a 10 micromol scale by Eurosequence b.v. Peptides were routinely dissolved in 1 ml water/DMF/DMSO (1:1:1;v/v/v). Peptides were line-blotted onto PVDF membranes and tested for immuno-reactivity as described above.
Based on the sequence of the epitope identified in the digested proteins, a number of peptides were synthesized by the method described in 1.8 above. The synthesized peptides were then evaluated for their binding activity to SDAs as compared to NSDAs as described above.

[2] = system: NSDAs (non-schizophrenic derived antibodies); assay: Reactivity of proteins to NSDAs (platelet autoantibodies from control non-schizophrenic individuals), blot with anti-human Fc-HRP; type: binding; conditions: number of NSDA samples that reacted positively with the enzyme, of 8 controls
Procedure: as §1, §2
(§4) Every fifth fraction (0.1 ml) was dot blotted onto PVDF membranes using the DotBlot device (96 wells) from BioRad. Immuno-reactive fractions were then detected as described above (1.3)
(§5) The binding activity of the above two enzymes was then tested by reacting them with SDAs (prepared from samples obtained from schizophrenic patients) and to NSDA (prepared from control non-schizophrenic individuals).

[3] = system: SDAs (schizophrenic derived antibodies); assay: Reactivity of proteins to SDAs (platelet autoantibodies from schizophrenic patients), blot with anti-human Fc-HRP; type: binding; conditions: number of SDA samples that reacted positively with the enzyme, of 8 patients
Procedure: as §1, §2, §4, §5

[4] = system: PAAs obtained from non-schizophrenic individuals; assay: Binding of peptide to isolated PAAs from non-schizophrenic individuals; set-up: species or system human; conditions: isolated PAAs from eight different non-schizophrenic individuals, FIG. 1B
Procedure: as §1, §2
(§6) Various peptides were synthesized on Abimed 522 at a 10 micromol scale by Eurosequence b.v. Peptides were routinely dissolved in 1 ml water/DMF/DMSO (1:1:1;v/v/v). […]

[5] = system: SDA in plasma samples obtained from schizophrenic patients; assay: Binding of peptide to plasma samples from schizophrenic patients; set-up: species or system human; conditions: plasma samples of five schizophrenic patients, FIG. 2A
Procedure: as §2, §3
(§7) The capability of Peptide 14 (SEQ ID NO: 3) to bind SDA in plasma samples obtained from schizophrenic patients was then tested. […] Peptide 14 (SEQ ID NO: 10) was used as a negative control.

[6] = system: NSDA in plasma samples from non-schizophrenic individuals; assay: Binding of peptide to plasma samples from non-schizophrenic individuals; set-up: species or system human; conditions: plasma samples of fifteen non-schizophrenic individuals, FIG. 2B
Procedure: as §2, §3, §7

[7] = system: PAAs obtained from schizophrenic patients (SDA); assay: Binding of peptide to isolated PAAs from schizophrenic patients; set-up: species or system human
Procedure: as §1, §2, §6

Substance | Activity [1] | other results
2 (SGETEDTFIADLVVGLCTGQIKTGAPCR; being the immunologically active epitope) [compound 2] | YES | 
3 (LVVGLCTCQIKTGPAC; peptide capable of binding antibodies that are found in elevated levels in body fluids of schizophrenic patients.) [compound 3] | YES | 
4 (IADLVVGLCTGQIKTGAPCR; peptide capable of binding antibodies that are found in elevated levels in body fluids of schizophrenic patients.) [compound 4] | YES | 
5 (ADLVVGLCTGQIKTGAPCR; peptide capable of binding antibodies that are found in elevated levels in body fluids of schizophrenic patients.) [compound 5] | YES | 
6 (DLVVGLCTGQIKTGAPCR; peptide capable of binding antibodies that are found in elevated levels in body fluids of schizophrenic patients.) [compound 6] | YES | 
7 (LVVGLCTGQIKTGAPCR; peptide capable of binding antibodies that are found in elevated levels in body fluids of schizophrenic patients.) [compound 7] | YES | 
8 (LVVGLCTGQIKTGPACR; peptide capable of binding antibodies that are found in elevated levels in body fluids of schizophrenic patients.) [compound 8] | YES | 
9 (LVVGLCTPQIKTGPACR; peptide capable of binding antibodies that are found in elevated levels in body fluids of schizophrenic patients.) [compound 9] | YES | 
10 (SGETEDTFIADLVVGLCTGQ; peptide capable of binding antibodies that are found in elevated levels in body fluids of schizophrenic patients.) [compound 10] | No | 
11 (VVGLCTGQIKTGAPCR; peptide capable of binding antibodies that are found in elevated levels in body fluids of schizophrenic patients.) [compound 11] | No | 
12 (CTGQIKTGAPCR; peptide capable of binding antibodies that are found in elevated levels in body fluids of schizophrenic patients.) [compound 12] | No | 
13 (LVVGLCTGQIKTGAPC; peptide capable of binding antibodies that are found in elevated levels in body fluids of schizophrenic patients.) [compound 13] | No | 
15 (LVVGLCTGQIKTGPAC; peptide capable of binding antibodies that are found in elevated levels in body fluids of schizophrenic patients.) [compound 15] | No | 
G-3-P-Dehydrogenase from chicken: glyceraldehyde-3-phosphate dehydrogenase (G3PD) enzyme from chicken |  | Controls (n = 8) Positive [2]: 2/8; Patients (n = 8) Positive [3]: 7/8
G-3-P-Dehydrogenase from human: glyceraldehyde-3-phosphate dehydrogenase (G3PD) enzyme from human |  | Controls (n = 8) Positive [2]: 1/8; Patients (n = 8) Positive [3]: 7/8
G-3-P-Dehydrogenase from pig: glyceraldehyde-3-phosphate dehydrogenase (G3PD) enzyme from pig |  | Controls (n = 8) Positive [2]: 1/8; Patients (n = 8) Positive [3]: 8/8
LVVGLCTCQIKTGPAC (peptide capable of binding antibodies that are found in elevated levels in body fluids of schizophrenic patients.) [SEQ ID NO: 3] | No | ranking of binding to antibodies found in high levels in schizophrenic patients ([1]; among the synthesized peptides): most capable of binding; binding to PAAs from non-schizophrenic individuals [4]: did not bind; SDA in plasma of schizophrenic patients positively bound [5]: four out of five; plasma samples of non-schizophrenic individuals whose NSDA was not bound [6]: fourteen out of fifteen; PAAs from schizophrenic patients positively bound ([7]; isolated PAAs from eight different schizophrenic patients, FIG. 1A): seven out of eight; binding activity to SDA, dimer form versus non-dimer form ([7]; ring via two cysteins and dimer via free cystein after overnight in water/DMF/DMSO): the dimer form of the peptide was much more active in binding SDAs than the non-dimer form
SGETEDTFIADLVVGLCTGQIKTGAPCR (being the immunologically active epitope) [SEQ ID NO: 2] |  | immunological activity of peptide from enzymatic digest of Enolase ([1]; binding SDAs to a higher extent than NSDAs, amino acids 372-399): immunologically active
